In patent publication US20240425464A1, “Substituted Monohydrazides as Potent Antifungal Agents” (University of Kentucky Research Foundation, priority 2023, published 2024):
In brackets after ≈: the same amount, converted by molar mass. Where two headings read alike, the source gives them in different places.

Legend:
Experiment in all cases: MIC determination by in vitro antifungal assay
[1] = tested on: Aspergillus fumigatus NRRL 163 (Q); type: cell-based; conditions: strain Q = A. fumigatus NRRL 163
Outline: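 Broth microdilution following CLSI M27-A3/M38-A2 with modifications, in RPMI 1640 buffered to pH 7.0 with 0.165 M MOPS. Yeast inoculum adjusted to OD600 0.12 and diluted 1:100. Compounds tested at 0.06–31.3 μg/mL by double dilution; incubation 48 h at 35° C.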

[2] = tested on: A. fumigatus NRRL 5109 (R); type: cell-based, Aspergillus fumigatus; conditions: strain R = A. fumigatus NRRL 5109
Method: (§1) 10 mg/mL stock solutions of compounds 1a-9j were prepared in dimethyl sulfoxide (DMSO) and were stored at −20° C. in the dark. The antifungal agent amphotericin B (AmB) was purchased from VWR (Radnor PA, USA). AmB was dissolved in DMSO at a final concentration of 5 mg/mL and was stored at −20° C., protected from light. Candida albicans American Type Culture Collection (ATCC) 10231 (strain A), C. albicans ATCC 64124 (B), and C. albicans ATCC MYA-2876 (C) were obtained from Utah State University. C. albicans ATCC 90819 (D), C. albicans ATCC MYA-2310 (E), C. albicans ATCC MYA-1237 (F), C. albicans ATCC MYA-1003 (G), Candida glabrata ATCC 2001 (H), Candida krusei ATCC 6258 (I), Candida parapsilosis ATCC 22019 (J), Cryptococcus neoformans ATCC MYA-895 (M), Aspergillus terreus ATCC MYA-3633 (N), and Aspergillus flavus ATCC MYA-3631 (0) were obtained from the American Type Culture Collection (ATCC; Manassas, VA, USA). Aspergillus nidulans ATCC 38163 (P) was obtained from University of Kentucky. Clinically derived Aspergillus fumigatus NRRL 163 (Q), A. fumigatus NRRL 5109 (R), and A. fumigatus NRRL 6113 (S) were obtained from Northern Regional Research Laboratory (NRRL). Candida auris 384 (K), C. auris 390 (L), and fungal strains 381-400 (including 10 C. auris (AR Bank #381-390), 3 Candida duobushaemulonii (AR Bank #391, AR Bank #392, and AR Bank #394), 2 Candida haemulonii (AR Bank #393 and AR Bank #395), 1 Kodameae ohmeri (AR Bank #396), 1 C. krusei (AR Bank #397), 1 Candida lusitaniae (AR Bank #398), and 2 Saccharomyces cerevisiae strains (AR Bank #399 and AR Bank #400)) were part of a larger fungal library from the AR Bank maintained by the Centers for Disease Control and Prevention (CDC; Atlanta, GA, USA). Filamentous fungi and yeasts were cultivated at 35° C. in RPMI 1640 medium (with L-glutamine, without sodium bicarbonate, Sigma-Aldrich, St. Louis, MO) buffered to a pH of 7.0 with 0.165 M morpholinepropanesulfonic acid (MOPS) buffer (Sigma-Aldrich). For cytotoxicity assays, HepG2 and the mouse macrophage cell line J774A.1 were obtained from University of Kentucky. The human embryonic kidney cell line, HEK-293, was bought from the ATCC. Mammalian cells were grown in Dulbecco's Modified Eagle's Medium (DMEM) (from VWR) with 10% fetal bovine serum (FBS) (from VWR) and 1% Pen/Strep (from ATCC). Cell lines were cultured at 37° C. with 5% CO2 and passaged by trypsinization with 0.05% trypsin: 0.53 mM EDTA (from Sigma-Aldrich).
(§2) The MIC values of compounds 1a-9j against yeast cells (strains A-P and 381-400) were determined in 96-well plates as described in the CLSI documents M27-A3 and M38-A2 with minor modifications.^2 A single colony of freshly prepared yeast cells was used to inoculate 5 mL of yeast extract peptone dextrose (YPD) broth prior to incubation overnight with shaking at 200 rpm at 35° C. From the actively growing yeast culture, 100 µL were then transferred to 900 μL of RPMI 1640 medium and re-adjusted to achieve OD600 of 0.12 (˜1×10^6 CFU/mL). The cell suspension was further diluted to achieve 1:100 in RPMI 1640 medium. 100 μL of cells were added to the wells of a 96-well microtiter plates that contained 100 µL of the compound solution to obtain concentrations of 0.06-31.3 μg/mL of compounds 1a-9j or AmB prior to incubation for 48 h at 35° C.
(§3) Finally, the activity of these monohydrazides was explored against […] non-Candida strains: Cryptococcus neoformans ATCC MYA-895 (M), Aspergillus terreus ATCC MYA-3633 (N), Aspergillus flavus ATCC MYA-3631 (O), Aspergillus nidulans ATCC 38163 (P), Aspergillus fumigatus NRRL 163 (Q), A. fumigatus NRRL 5109 (R), and A. fumigatus NRRL 6113 (S) (Tables 1A and 1B). The double dilution method was used with concentrations ranging from 0.06 to 31.3 j·tg mL^−1 for monohydrazides 1a-9j, and the commercially available positive antifungal control amphotericin B (AmB).

[3] = tested on: A. fumigatus NRRL 6113 (S); type: cell-based, Aspergillus fumigatus; conditions: for MIC: strain S = A. fumigatus NRRL 6113
Method: as §1, §2, §3

[4] = Aspergillus fumigatus, NRRL163, read-out: MIC
[5] = Aspergillus fumigatus, NRRL5109, read-out: MIC
[6] = Aspergillus fumigatus, NRRL6113, read-out: MIC

| Compound | MIC [1] | MIC [2] | MIC [3] | MIC [1, 4] | MIC [2, 5] | MIC [3, 6] | MIC (highest activity against strain S) [3] |
| --- | --- | --- | --- | --- | --- | --- | --- |
| C[C@@H]1[C@H](O)[C@@H](C)/C=C/C=C/C=C/C=C/C=C/C=C/C=C/[C@H](O[C@@H]2O[C@H](C)[C@@H](O)[C@H](N)[C@@H]2O)C[C@@H]2O[C@](O)(C[C@@H](O)C[C@@H](O)[C@H](O)CC[C@@H](O)C[C@@H](O)CC(=O)O[C@H]1C)C[C@H](O)[C@H]2C(=O)O [AmB, amphotericin B, reference compound] | 0.98 μg/mL^−1 | 0.98 μg/mL^−1 | 1.95 μg/mL^−1 |  |  |  |  |
| O=C(NNc1cccc(F)c1)c1ccc(F)cc1F [Compound 1a] | >31.3 μg/mL^−1 | >31.3 μg/mL^−1 | >31.3 μg/mL^−1 |  |  |  |  |
| O=C(NNc1ccc(F)cc1)c1ccc(F)cc1F [Compound 1d] |  |  |  | > 31.3 µg/mL | > 31.3 µg/mL | > 31.3 µg/mL |  |
| COc1ccc(NNC(=O)c2ccc(F)cc2F)cc1 [Compound 1f] |  |  |  | > 31.3 µg/mL | > 31.3 µg/mL | > 31.3 µg/mL |  |
| O=C(NNc1cccc(F)c1)c1ccccn1 [Compound 2a] | >31.3 μg/mL^−1 | >31.3 μg/mL^−1 | >31.3 μg/mL^−1 |  |  |  |  |
| O=C(NNc1cccc(Cl)c1)c1ccccn1 [Compound 2b] | >31.3 μg/mL^−1 | >31.3 μg/mL^−1 | >31.3 μg/mL^−1 |  |  |  |  |
| COc1cccc(NNC(=O)c2ccccn2)c1 [Compound 2c] | 7.8 μg/mL^−1 | 3.9 μg/mL^−1 | >31.3 μg/mL^−1 |  |  |  |  |
| O=C(NNc1ccc(F)cc1)c1ccccn1 [Compound 2d] |  |  |  | 31.3 µg/mL (≈ 135 µM) | 7.8 µg/mL (≈ 33.7 µM) | 15.6 µg/mL (≈ 67.5 µM) | 15.6 j·tg mL^−1 |
| O=C(NNc1ccc(Cl)cc1)c1ccccn1 [Compound 2e] | >31.3 μg/mL^−1 | 7.8 μg/mL^−1 | 15.6 μg/mL^−1 |  |  |  | 15.6 j·tg mL^−1 |
| COc1ccc(NNC(=O)c2ccccn2)cc1 [Compound 2f] |  |  |  | > 31.3 µg/mL | > 31.3 µg/mL | 31.3 µg/mL (≈ 129 µM) |  |
| O=C(NNc1ccc(F)cc1F)c1ccccn1 [Compound 2g] |  |  |  | > 31.3 µg/mL | 15.6 µg/mL (≈ 62.6 µM) | 31.3 µg/mL (≈ 126 µM) |  |
| O=C(NNc1cc(F)ccc1F)c1ccccn1 [Compound 2h] |  |  |  | > 31.3 µg/mL | 15.6 µg/mL (≈ 62.6 µM) | > 31.3 µg/mL |  |
| O=C(NNc1cc(F)cc(F)c1)c1ccccn1 [Compound 2i] |  |  |  | ≤ 0.06 µg/mL | ≤ 0.06 µg/mL | 31.3 µg/mL (≈ 126 µM) |  |
| O=C(NNc1cc(Cl)cc(Cl)c1)c1ccccn1 [Compound 2j] |  |  |  | > 31.3 µg/mL | > 31.3 µg/mL | > 31.3 µg/mL |  |
| O=C(NNc1cccc(F)c1)c1ccc(F)cn1 [Compound 3a] | >31.3 μg/mL^−1 | >31.3 μg/mL^−1 | >31.3 μg/mL^−1 |  |  |  |  |
| COc1cccc(NNC(=O)c2ccc(F)cn2)c1 [Compound 3c] | >31.3 μg/mL^−1 | >31.3 μg/mL^−1 | >31.3 μg/mL^−1 |  |  |  |  |
| COc1ccc(NNC(=O)c2ccc(F)cn2)cc1 [Compound 3f] | >31.3 μg/mL^−1 | >31.3 μg/mL^−1 | >31.3 μg/mL^−1 |  |  |  |  |

| Compound | MIC [1] | MIC [2] | MIC [3] | MIC [1, 4] | MIC [2, 5] | MIC [3, 6] | MIC (highest activity against strain S) [3] |
| --- | --- | --- | --- | --- | --- | --- | --- |
| O=C(NNc1cccc(F)c1)c1ccc(Br)cn1 [Compound 4a] | >31.3 μg/mL^−1 | >31.3 μg/mL^−1 | >31.3 μg/mL^−1 |  |  |  |  |
| COc1cccc(NNC(=O)c2ccc(Br)cn2)c1 [Compound 4c] |  |  |  | 15.6 µg/mL (≈ 48.4 µM) | 7.8 µg/mL (≈ 24.2 µM) | > 31.3 µg/mL |  |
| O=C(NNc1ccc(F)cc1)c1cccc(F)n1 [Compound 5d] |  |  |  | 31.3 µg/mL (≈ 126 µM) | 15.6 µg/mL (≈ 62.6 µM) | 15.6 µg/mL (≈ 62.6 µM) |  |
| O=C(NNc1ccc(Cl)cc1)c1cccc(F)n1 [Compound 5e] |  |  |  |  |  |  | 15.6 j·tg mL^−1 |
| COc1ccc(NNC(=O)c2cccc(F)n2)cc1 [Compound 5f] |  |  |  | > 31.3 µg/mL | > 31.3 µg/mL | 15.6 µg/mL (≈ 59.7 µM) | 15.6 j·tg mL^−1 |
| O=C(NNc1cccc(F)c1)c1ncc(F)cc1F [Compound 7a] | >31.3 μg/mL^−1 | >31.3 μg/mL^−1 | >31.3 μg/mL^−1 |  |  |  |  |
| O=C(NNc1ccc(F)cc1)c1ncc(F)cc1F [Compound 7d] |  |  |  | > 31.3 µg/mL | > 31.3 µg/mL | > 31.3 µg/mL |  |
| COc1ccc(NNC(=O)c2ncc(F)cc2F)cc1 [Compound 7f] |  |  |  | 31.3 µg/mL (≈ 112 µM) | 31.3 µg/mL (≈ 112 µM) | 31.3 µg/mL (≈ 112 µM) |  |
| O=C(NNc1cccc(F)c1)c1nc(F)ccc1F [Compound 8a] | >31.3 μg/mL^−1 | >31.3 μg/mL^−1 | >31.3 μg/mL^−1 |  |  |  |  |
| O=C(NNc1ccc(F)cc1)c1nc(F)ccc1F [Compound 8d] |  |  |  | 31.3 µg/mL (≈ 117 µM) | 15.6 µg/mL (≈ 58.4 µM) | > 31.3 µg/mL |  |
| COc1ccc(NNC(=O)c2nc(F)ccc2F)cc1 [Compound 8f] |  |  |  | 31.3 µg/mL (≈ 112 µM) | 15.6 µg/mL (≈ 55.9 µM) | 31.3 µg/mL (≈ 112 µM) |  |
| O=C(NNc1cccc(F)c1)c1cnccn1 [Compound 9a] | >31.3 μg/mL^−1 | >31.3 μg/mL^−1 | >31.3 μg/mL^−1 |  |  |  |  |
| O=C(NNc1cccc(Cl)c1)c1cnccn1 [Compound 9b] |  |  |  | > 31.3 µg/mL | > 31.3 µg/mL | > 31.3 µg/mL |  |
| COc1cccc(NNC(=O)c2cnccn2)c1 [Compound 9c] |  |  |  | 15.6 µg/mL (≈ 63.9 µM) | 7.8 µg/mL (≈ 31.9 µM) | > 31.3 µg/mL |  |
| COc1ccc(NNC(=O)c2cnccn2)cc1 [Compound 9f] |  |  |  | 31.3 µg/mL (≈ 128 µM) | 31.3 µg/mL (≈ 128 µM) | 31.3 µg/mL (≈ 128 µM) |  |
| O=C(NNc1ccc(F)cc1F)c1cnccn1 [Compound 9g] |  |  |  | > 31.3 µg/mL | > 31.3 µg/mL | > 31.3 µg/mL |  |
